In ChEMBL document CHEMBL3991601, “The target landscape of clinical kinase drugs” (Science, 2017):
Active and inactive are the calls of the source. Rule as the data show it, for most assays here: actives have a measured Kd and inactives only a lower limit.

How the values were obtained:
[1] = target: T1, Cyclin-G-associated kinase (Homo sapiens, UniProt O14976)
T1 sequence (O14976 whole entry): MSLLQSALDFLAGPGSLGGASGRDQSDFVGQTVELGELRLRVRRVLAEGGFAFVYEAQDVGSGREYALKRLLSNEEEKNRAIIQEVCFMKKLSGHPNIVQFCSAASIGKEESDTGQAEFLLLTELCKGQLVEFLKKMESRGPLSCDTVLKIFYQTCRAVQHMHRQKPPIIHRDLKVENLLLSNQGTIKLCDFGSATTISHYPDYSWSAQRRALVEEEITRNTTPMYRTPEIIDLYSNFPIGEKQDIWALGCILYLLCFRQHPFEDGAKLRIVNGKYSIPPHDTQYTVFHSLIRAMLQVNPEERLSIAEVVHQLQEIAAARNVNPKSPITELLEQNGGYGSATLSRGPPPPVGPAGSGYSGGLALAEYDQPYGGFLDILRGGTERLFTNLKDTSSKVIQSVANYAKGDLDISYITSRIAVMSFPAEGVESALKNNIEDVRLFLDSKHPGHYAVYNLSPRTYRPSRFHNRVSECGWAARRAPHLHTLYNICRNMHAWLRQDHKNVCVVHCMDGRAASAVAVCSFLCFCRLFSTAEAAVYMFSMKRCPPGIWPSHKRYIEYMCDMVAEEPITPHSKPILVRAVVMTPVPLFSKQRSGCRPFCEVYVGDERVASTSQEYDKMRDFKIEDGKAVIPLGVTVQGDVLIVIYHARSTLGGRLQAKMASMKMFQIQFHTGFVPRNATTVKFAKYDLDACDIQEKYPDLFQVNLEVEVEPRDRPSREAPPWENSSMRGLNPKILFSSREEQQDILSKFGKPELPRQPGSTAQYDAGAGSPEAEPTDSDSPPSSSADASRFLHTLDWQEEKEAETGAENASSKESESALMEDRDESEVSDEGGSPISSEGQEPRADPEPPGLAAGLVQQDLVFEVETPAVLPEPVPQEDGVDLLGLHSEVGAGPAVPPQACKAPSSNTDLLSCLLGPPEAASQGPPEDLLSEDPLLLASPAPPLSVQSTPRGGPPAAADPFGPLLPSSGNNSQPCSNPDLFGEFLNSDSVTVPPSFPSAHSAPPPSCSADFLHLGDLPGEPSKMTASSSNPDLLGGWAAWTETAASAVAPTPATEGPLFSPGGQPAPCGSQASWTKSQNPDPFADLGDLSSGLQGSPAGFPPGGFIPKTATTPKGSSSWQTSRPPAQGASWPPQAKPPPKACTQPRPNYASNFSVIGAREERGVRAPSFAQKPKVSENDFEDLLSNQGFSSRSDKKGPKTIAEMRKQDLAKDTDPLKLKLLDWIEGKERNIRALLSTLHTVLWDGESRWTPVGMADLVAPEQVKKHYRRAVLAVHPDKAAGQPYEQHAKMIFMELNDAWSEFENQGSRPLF

[2] = target: T2, Ferrochelatase, mitochondrial (Homo sapiens, UniProt P22830)
T2 sequence (P22830 whole entry): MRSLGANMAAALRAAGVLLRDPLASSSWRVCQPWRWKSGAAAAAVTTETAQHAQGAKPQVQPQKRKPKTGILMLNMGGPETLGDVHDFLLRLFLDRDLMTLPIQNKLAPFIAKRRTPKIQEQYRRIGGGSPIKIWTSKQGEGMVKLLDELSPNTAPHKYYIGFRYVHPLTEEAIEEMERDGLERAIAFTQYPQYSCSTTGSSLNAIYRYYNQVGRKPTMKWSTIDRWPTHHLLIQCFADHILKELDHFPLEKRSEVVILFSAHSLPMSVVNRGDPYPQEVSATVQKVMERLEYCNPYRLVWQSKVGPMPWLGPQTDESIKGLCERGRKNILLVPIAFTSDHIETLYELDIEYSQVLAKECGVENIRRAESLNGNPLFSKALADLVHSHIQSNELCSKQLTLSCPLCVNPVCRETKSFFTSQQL

[3] = target: Protein-tyrosine kinase 6 (Homo sapiens, UniProt Q13882)
[4] = target: Tyrosine-protein kinase Lck (Homo sapiens, UniProt P06239)
[5] = target: Hepatocyte growth factor receptor (Homo sapiens, UniProt P08581)
[6] = target: T3, DNA replication licensing factor MCM4 (Homo sapiens, UniProt P33991)
T3 sequence (P33991 whole entry): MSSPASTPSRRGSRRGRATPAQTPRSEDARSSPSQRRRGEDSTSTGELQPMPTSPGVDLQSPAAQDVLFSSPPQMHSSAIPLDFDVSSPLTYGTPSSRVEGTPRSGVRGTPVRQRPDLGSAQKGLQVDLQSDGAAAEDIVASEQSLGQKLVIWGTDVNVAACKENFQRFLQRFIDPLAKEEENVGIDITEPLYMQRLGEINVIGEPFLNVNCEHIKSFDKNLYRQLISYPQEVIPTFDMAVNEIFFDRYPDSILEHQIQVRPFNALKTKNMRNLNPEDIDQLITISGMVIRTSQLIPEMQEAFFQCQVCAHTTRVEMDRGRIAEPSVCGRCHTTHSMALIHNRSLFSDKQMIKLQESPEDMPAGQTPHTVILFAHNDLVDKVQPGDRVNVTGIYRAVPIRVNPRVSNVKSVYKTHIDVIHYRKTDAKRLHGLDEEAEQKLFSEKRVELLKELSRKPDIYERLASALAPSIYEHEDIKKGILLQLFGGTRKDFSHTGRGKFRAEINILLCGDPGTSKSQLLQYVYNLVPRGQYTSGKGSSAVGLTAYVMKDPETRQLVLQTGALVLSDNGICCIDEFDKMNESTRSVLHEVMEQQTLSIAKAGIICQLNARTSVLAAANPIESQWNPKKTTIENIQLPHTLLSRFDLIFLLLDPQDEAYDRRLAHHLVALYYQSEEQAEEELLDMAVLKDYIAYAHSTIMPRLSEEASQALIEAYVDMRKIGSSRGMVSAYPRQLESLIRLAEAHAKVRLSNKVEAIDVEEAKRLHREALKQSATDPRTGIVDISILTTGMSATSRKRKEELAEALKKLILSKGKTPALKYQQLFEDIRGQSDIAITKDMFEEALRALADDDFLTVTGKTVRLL

[7] = target: Mitogen-activated protein kinase kinase kinase 1 (Homo sapiens, UniProt Q13233)
Also: in the data inactive means no Kd found up to 30 µM.

Mitogen-activated protein kinase kinase kinase 1, sequence (Q13233 whole entry): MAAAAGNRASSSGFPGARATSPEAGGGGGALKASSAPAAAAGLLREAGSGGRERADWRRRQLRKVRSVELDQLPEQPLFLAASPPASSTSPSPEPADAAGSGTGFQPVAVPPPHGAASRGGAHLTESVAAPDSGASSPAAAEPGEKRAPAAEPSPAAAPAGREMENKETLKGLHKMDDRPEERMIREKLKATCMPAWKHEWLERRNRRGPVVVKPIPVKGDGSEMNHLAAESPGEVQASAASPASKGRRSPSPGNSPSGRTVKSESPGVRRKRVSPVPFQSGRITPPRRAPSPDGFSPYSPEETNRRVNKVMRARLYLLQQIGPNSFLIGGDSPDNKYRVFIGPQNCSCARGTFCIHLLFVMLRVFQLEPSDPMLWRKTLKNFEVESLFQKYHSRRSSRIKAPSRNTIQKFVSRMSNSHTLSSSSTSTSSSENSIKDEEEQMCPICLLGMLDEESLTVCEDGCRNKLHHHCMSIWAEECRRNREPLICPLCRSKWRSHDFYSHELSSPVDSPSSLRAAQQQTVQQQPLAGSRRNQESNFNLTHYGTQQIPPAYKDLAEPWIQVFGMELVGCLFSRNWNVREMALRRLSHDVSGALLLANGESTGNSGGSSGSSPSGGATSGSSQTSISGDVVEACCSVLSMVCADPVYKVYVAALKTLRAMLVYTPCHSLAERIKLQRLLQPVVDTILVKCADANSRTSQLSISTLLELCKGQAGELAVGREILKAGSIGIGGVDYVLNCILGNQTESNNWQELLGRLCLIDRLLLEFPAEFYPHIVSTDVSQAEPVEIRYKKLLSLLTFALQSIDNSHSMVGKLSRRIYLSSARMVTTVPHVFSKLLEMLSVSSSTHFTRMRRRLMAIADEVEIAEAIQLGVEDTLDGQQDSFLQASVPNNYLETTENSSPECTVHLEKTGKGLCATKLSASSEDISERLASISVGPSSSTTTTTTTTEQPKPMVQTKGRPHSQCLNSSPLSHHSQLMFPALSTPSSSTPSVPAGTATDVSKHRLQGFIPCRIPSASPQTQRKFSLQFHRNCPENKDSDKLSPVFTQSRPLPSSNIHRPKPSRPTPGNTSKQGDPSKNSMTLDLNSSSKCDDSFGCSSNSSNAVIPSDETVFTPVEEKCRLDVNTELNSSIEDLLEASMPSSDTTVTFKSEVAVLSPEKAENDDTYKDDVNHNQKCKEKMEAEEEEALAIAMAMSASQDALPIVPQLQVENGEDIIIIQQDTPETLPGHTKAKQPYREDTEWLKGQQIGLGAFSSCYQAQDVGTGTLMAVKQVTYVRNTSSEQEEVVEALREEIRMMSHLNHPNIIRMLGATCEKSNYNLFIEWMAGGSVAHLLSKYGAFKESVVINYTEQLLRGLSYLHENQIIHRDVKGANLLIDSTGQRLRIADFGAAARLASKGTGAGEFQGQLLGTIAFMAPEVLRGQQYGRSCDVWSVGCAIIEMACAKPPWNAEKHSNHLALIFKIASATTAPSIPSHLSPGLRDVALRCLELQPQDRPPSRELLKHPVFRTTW
Tyrosine-protein kinase Lck, sequence (P06239 whole entry): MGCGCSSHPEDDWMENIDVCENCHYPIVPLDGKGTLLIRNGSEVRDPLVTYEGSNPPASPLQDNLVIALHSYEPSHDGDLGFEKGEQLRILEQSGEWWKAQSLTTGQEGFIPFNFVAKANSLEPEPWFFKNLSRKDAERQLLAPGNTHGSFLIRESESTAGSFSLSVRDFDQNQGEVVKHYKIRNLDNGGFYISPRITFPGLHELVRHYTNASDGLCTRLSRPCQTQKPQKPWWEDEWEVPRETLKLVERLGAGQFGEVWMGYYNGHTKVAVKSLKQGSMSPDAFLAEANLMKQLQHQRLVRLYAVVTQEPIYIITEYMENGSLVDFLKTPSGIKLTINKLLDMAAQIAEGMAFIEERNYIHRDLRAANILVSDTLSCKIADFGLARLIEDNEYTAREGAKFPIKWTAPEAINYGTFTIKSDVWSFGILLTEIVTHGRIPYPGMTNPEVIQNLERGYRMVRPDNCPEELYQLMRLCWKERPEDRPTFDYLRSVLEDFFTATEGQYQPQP
Protein-tyrosine kinase 6, sequence (Q13882 whole entry): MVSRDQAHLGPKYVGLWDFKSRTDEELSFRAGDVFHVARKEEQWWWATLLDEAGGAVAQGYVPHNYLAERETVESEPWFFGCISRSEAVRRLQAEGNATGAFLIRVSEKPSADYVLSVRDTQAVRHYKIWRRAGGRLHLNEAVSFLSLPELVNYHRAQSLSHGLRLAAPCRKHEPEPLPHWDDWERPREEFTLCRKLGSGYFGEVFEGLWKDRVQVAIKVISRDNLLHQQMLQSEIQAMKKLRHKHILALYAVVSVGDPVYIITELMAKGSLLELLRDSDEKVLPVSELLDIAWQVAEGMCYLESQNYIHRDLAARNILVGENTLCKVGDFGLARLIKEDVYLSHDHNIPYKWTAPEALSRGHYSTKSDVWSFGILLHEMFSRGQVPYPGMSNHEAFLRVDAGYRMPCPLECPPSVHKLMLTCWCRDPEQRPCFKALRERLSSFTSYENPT
Hepatocyte growth factor receptor, sequence (P08581 whole entry): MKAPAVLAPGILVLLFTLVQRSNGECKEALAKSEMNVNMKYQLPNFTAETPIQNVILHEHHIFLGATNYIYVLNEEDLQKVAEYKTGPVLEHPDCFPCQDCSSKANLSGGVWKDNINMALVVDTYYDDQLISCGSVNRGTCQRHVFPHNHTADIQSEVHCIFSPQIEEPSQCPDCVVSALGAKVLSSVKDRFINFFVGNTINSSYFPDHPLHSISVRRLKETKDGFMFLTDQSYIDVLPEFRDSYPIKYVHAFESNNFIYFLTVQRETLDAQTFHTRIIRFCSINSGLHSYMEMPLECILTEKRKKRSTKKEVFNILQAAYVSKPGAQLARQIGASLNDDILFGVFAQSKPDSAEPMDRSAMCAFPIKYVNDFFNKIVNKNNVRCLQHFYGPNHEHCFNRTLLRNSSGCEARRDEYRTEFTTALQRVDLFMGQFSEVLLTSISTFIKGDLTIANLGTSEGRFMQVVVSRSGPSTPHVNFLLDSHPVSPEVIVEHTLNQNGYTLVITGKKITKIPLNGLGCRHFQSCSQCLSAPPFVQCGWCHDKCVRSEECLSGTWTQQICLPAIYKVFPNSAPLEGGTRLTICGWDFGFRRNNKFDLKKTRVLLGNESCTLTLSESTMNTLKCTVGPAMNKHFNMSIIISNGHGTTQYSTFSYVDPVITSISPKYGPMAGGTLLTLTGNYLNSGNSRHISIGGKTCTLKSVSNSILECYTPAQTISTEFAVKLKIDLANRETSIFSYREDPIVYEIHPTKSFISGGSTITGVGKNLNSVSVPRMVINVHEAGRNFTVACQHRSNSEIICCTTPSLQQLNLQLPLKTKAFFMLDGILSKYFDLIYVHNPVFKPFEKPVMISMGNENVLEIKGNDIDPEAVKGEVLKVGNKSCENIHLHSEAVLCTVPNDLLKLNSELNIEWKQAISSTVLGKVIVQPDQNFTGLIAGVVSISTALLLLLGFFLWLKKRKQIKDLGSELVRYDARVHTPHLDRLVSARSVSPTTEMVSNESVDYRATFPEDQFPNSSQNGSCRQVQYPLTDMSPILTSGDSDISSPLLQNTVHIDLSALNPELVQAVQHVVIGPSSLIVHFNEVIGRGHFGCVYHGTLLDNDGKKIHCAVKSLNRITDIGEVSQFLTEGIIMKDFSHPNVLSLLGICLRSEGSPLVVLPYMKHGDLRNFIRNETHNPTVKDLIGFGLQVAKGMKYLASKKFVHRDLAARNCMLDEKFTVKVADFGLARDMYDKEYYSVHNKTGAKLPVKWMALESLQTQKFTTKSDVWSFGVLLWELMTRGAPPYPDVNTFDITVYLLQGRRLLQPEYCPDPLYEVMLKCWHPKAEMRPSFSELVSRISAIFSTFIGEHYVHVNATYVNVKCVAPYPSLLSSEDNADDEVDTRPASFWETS

Row | Kd [1] | Kd [2] | Kd [3] | Kd [4] | Kd [5] | Kd [6] | Kd [7] | Structure (SMILES)
1 | > 30 µM (inactive) | > 30 µM (inactive) | > 30 µM (inactive) | > 30 µM (inactive) | > 30 µM (inactive) | > 30 µM (inactive) | > 30 µM (inactive) | Cc1nc2cc(-n3ncc(C(=O)c4cc5ccccc5[nH]4)c3N)ccc2[nH]1 [FGFR INHIBITOR DEBIO 1347]
2 | 0.495 µM (active) | > 30 µM (inactive) | > 30 µM (inactive) | > 30 µM (inactive) | > 30 µM (inactive) | > 30 µM (inactive) | > 30 µM (inactive) | Cc1cccc(-c2nn3c(c2-c2ccnc4ccc(C(N)=O)cc24)CCC3)n1 [GALUNISERTIB]
3 | > 30 µM (inactive) | > 30 µM (inactive) | > 30 µM (inactive) | > 30 µM (inactive) | > 30 µM (inactive) | > 30 µM (inactive) | > 30 µM (inactive) | CNC(=O)c1cccc2cc(Oc3ccnc4cc(OCC5(N)CC5)c(OC)cc34)ccc12 [LUCITANIB]
4 | > 30 µM (inactive) | 1.07 µM (active) | > 30 µM (inactive) | > 30 µM (inactive) | > 30 µM (inactive) | > 30 µM (inactive) | > 30 µM (inactive) | NC1(c2ccc(-c3nc4ccn5c(=O)[nH]nc5c4cc3-c3ccccc3)cc2)CCC1 [MK-2206]
5 | > 30 µM (inactive) | 3.42 µM (active) | > 30 µM (inactive) | > 30 µM (inactive) | > 30 µM (inactive) | > 30 µM (inactive) | > 30 µM (inactive) | CN(C[C@@H]1COCCO1)S(=O)(=O)Nc1ccc2ccc3ncc(-c4cnn(C)c4)cc3c(=O)c2c1 [MK-2461]
6 | > 30 µM (inactive) | > 30 µM (inactive) | > 30 µM (inactive) | > 30 µM (inactive) | > 30 µM (inactive) | > 30 µM (inactive) | > 30 µM (inactive) | FC(F)(F)c1ccc(/C=C/c2nc(COc3ccc(CCCCn4ccnn4)cc3)co2)cc1 [MUBRITINIB]
7 | 1.95 µM (active) | > 30 µM (inactive) | > 30 µM (inactive) | > 30 µM (inactive) | > 30 µM (inactive) | > 30 µM (inactive) | > 30 µM (inactive) | Cc1nc(Nc2n[nH]c3c2CN(C(=O)N[C@H](CN(C)C)c2ccccc2)C3(C)C)c2sccc2n1 [PF-03758309]
8 | > 30 µM (inactive) | 3.82 µM | > 30 µM (inactive) | > 30 µM (inactive) | > 30 µM (inactive) | > 30 µM (inactive) | > 30 µM (inactive) | Cc1cnc(NC(=O)Nc2cc(Br)c(C)cc2OC[C@@H]2CNCCO2)cn1 [RABUSERTIB]
9 | > 30 µM (inactive) | > 30 µM (inactive) | > 30 µM (inactive) | > 30 µM (inactive) | > 30 µM (inactive) | > 30 µM (inactive) | > 30 µM (inactive) | CO[C@H]1C[C@@H]2CC[C@@H](C)[C@@](O)(O2)C(=O)C(=O)N2CCCC[C@H]2C(=O)O[C@H]([C@H](C)C[C@@H]2CC[C@@H](OP(C)(C)=O)[C@H](OC)C2)CC(=O)[C@H](C)/C=C(\C)[C@@H](O)[C@@H](OC)C(=O)[C@H](C)C[C@H](C)/C=C/C=C/C=C/1C [RIDAFOROLIMUS]
10 | > 30 µM (inactive) | > 30 µM (inactive) | > 30 µM (inactive) | > 30 µM (inactive) | > 30 µM (inactive) | > 30 µM (inactive) | > 30 µM (inactive) | N#CC1(c2ccc(NC(=O)c3cccnc3NCc3ccncc3)cc2)CCCC1 [RIVOCERANIB]
11 | > 30 µM (inactive) | > 30 µM (inactive) | > 30 µM (inactive) | > 30 µM (inactive) | > 30 µM (inactive) | > 30 µM (inactive) | > 30 µM (inactive) | O=c1[nH]ccc2cc(OC3CCNCC3)ccc12 [SAR-407899 FREE BASE]
12 | > 30 µM (inactive) | > 30 µM (inactive) | > 30 µM (inactive) | > 30 µM (inactive) | > 30 µM (inactive) | > 30 µM (inactive) | 1.25 µM | Cn1cc(-c2cnn3c(N)c(Br)c([C@@H]4CCCNC4)nc23)cn1 [SCH-900776]
13 | > 30 µM (inactive) | > 30 µM (inactive) | > 30 µM (inactive) | > 30 µM (inactive) | > 30 µM (inactive) | > 30 µM (inactive) | > 30 µM (inactive) | CO[C@H]1C[C@@H]2CC[C@@H](C)[C@@](O)(O2)C(=O)C(=O)N2CCCC[C@H]2C(=O)O[C@H]([C@H](C)C[C@@H]2CC[C@@H](O)[C@H](OC)C2)CC(=O)[C@H](C)/C=C(\C)[C@@H](O)[C@@H](OC)C(=O)[C@H](C)C[C@H](C)/C=C/C=C/C=C/1C [SIROLIMUS]
14 | > 30 µM (inactive) | > 30 µM (inactive) | 0.18 µM (active) | 0.105 µM (active) | > 30 µM (inactive) | > 30 µM (inactive) | > 30 µM (inactive) | CCS(=O)(=O)c1cccc(-c2cc(C(=O)NC3CCN(C)CC3)c(C)c3[nH]c4ncc(C)cc4c23)c1 [TAK-901]
15 | > 30 µM (inactive) | > 30 µM (inactive) | > 30 µM (inactive) | > 30 µM (inactive) | > 30 µM (inactive) | > 30 µM (inactive) | > 30 µM (inactive) | CO[C@H]1C[C@@H]2CC[C@@H](C)[C@@](O)(O2)C(=O)C(=O)N2CCCC[C@H]2C(=O)O[C@H]([C@H](C)C[C@@H]2CC[C@@H](OC(=O)C(C)(CO)CO)[C@H](OC)C2)CC(=O)[C@H](C)/C=C(\C)[C@@H](O)[C@@H](OC)C(=O)[C@H](C)C[C@H](C)/C=C/C=C/C=C/1C [TEMSIROLIMUS]

Row | Structure (SMILES) | Kd [1] | Kd [2] | Kd [3] | Kd [4] | Kd [5] | Kd [6] | Kd [7]
16 | O=C(Nc1nc2cccc(-c3ccc(CN4CCS(=O)(=O)CC4)cc3)n2n1)C1CC1 [FILGOTINIB] | > 30 µM (inactive) | > 30 µM (inactive) | > 30 µM (inactive) | > 30 µM (inactive) | > 30 µM (inactive) | > 30 µM (inactive) | > 30 µM (inactive)
17 | O=C(Nc1cc(C(F)(F)F)cc(C(F)(F)F)c1)c1cc(Cl)ccc1O [IMD-0354] | > 30 µM (inactive) | > 30 µM (inactive) | > 30 µM (inactive) | > 30 µM (inactive) | > 30 µM (inactive) | > 30 µM (inactive) | > 30 µM (inactive)
